Measured values reported in ChEMBL document CHEMBL5247653, “Discovery of Clinical Candidate ACT-777991, a Potent CXCR3 Antagonist for Antigen-Driven and Inflammatory Pathologies” (J Med Chem, 2023).
Converted amounts (≈) assume the structure as drawn. The source made the active and inactive calls. The calls are words filed in the database; no cut-off is given here.

Tests used:
[1] = Unbound clearance in Beagle dog plasma at 1 mg/kg, iv; format: ADME, organism-based, Canis lupus familiaris; conditions: in vivo
[2] = biological target: C-X-C chemokine receptor type 3 (Rattus norvegicus, UniProt Q9JII9); assay: Antagonist activity at rat CXCR3 expressed in CHO-K1 cells assessed as reduction in CXCL10 induced calcium flux by FLIPR method; format: cell-based
[3] = biological target: C3a anaphylatoxin chemotactic receptor (Homo sapiens) (UniProt Q16581); assay: Binding affinity to C3aR1 (unknown origin) at 10 uM by radioligand binding assay
[4] = test system: Mus musculus; assay: Antiinflammatory activity against LPS-induced DBA/1 mouse model assessed as reduction in CXCR3+ CD8+ T cells infiltration into BAL at 0.006 to 2 microg/g, po bid preincubated for 3 days followed by LPS stimulation for 30 mins and measured after 3 days by flow cytometry; format: functional, organism-based; conditions: T-cell, dose 0.006-2 µg/g, time 6.0 day
[5] = test system: Mus musculus; assay: Antiinflammatory activity against LPS-induced DBA/1 mouse model assessed as reduction in CXCR3+ CD8+ T cells infiltration into BAL at 0.02 microg/g, po preincubated for 3 days followed by LPS stimulation for 30 mins and measured after 3 days by flow cytometry; format: functional, T-cell; parameters: scale not given: the % may be the effect or the level left; conditions: dose 0.02 µg/g, time 6 day
[6] = biological target: T1, C-X-C chemokine receptor type 3 (Mus musculus) (UniProt O88410); assay: In vivo antagonist activity at CXCR3 in LPS-induced DBA/1 mouse model assessed as reduction in mouse CXCL10-mediated chemotaxis in CD8+ T cells at 0.006 microg/g, po bid preincubated for 3 days followed by LPS stimulation for 30 mins and measured after 3 days by flow cytometry; format: functional, organism-based; parameters: scale not given: the % may be the effect or the level left; conditions: T-cell, dose 0.006 µg/g, time 6.0 day
T1 sequence (whole entry): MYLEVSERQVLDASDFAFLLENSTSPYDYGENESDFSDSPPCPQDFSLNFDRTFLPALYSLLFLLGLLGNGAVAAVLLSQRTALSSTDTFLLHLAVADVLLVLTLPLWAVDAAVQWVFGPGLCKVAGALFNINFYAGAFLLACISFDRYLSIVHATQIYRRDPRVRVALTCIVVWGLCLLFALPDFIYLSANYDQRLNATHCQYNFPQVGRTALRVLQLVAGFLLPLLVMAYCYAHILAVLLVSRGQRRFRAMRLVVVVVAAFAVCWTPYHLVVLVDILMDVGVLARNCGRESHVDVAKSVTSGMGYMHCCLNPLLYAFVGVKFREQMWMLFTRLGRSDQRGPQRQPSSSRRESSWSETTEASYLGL

[7] = biological target: T1, C-X-C chemokine receptor type 3 (Mus musculus); assay: In vivo antagonist activity at CXCR3 in LPS-induced DBA/1 mouse model assessed as reduction in mouse CXCL10-mediated chemotaxis in CD8+ T cells at 0.02 microg/g, po bid preincubated for 3 days followed by LPS stimulation for 30 mins and measured after 3 days by flow cytometry; format: functional, organism-based; parameters: scale not given: the % may be the effect or the level left; conditions: T-cell, dose 0.02 µg/g, time 6.0 day
[8] = Solubility of compound in FaSSIF at 37 degreeC; format: ADME
[9] = biological target: Cytochrome P450 2C9 (Homo sapiens, UniProt P11712); assay: Competitive inhibition of CYP2C9 (unknown origin); format: ADME
[10] = Induction of CYP3A4 mRNA upregulation in human hepatocytes upto 10 uM; format: ADME, cell-based, Hepatocyte
[11] = biological target: ATP-dependent translocase ABCB1 (Homo sapiens, UniProt P08183); assay: Inhibition of human P-gp in dog MDCKII-MDR1 cells; format: ADME, cell-based
[12] = biological target: Solute carrier organic anion transporter family member 1B1 (Homo sapiens, UniProt Q9Y6L6); assay: Inhibition of human OATP1B1; format: ADME
[13] = Glutathione reactivity assessed as GSH-adduct formation by dansyl-glutathione trapping assay; format: physicochemical
[14] = Metabolic stability in dog liver microsomes assessed as M3 metabolite formation at 1 uM and measured upto 15 mins in presence of NADPH regenerating system by LC-MS/MS analysis; format: ADME, Canis lupus familiaris, Microsome; conditions: 0.25 h
[15] = Metabolic stability in human hepatocyte assessed as M1 metabolite formation at 1 uM and measured upto 15 mins in presence of NADPH regenerating system by LC-MS/MS analysis; format: ADME, cell-based; conditions: hepatocytes, 0.25 h
[16] = Metabolic stability in human hepatocyte assessed as M4 metabolite formation at 1 uM and measured upto 15 mins in presence of NADPH regenerating system by LC-MS/MS analysis; format: ADME, cell-based; conditions: hepatocytes, 0.25 h
[17] = Metabolic stability in dog hepatocyte assessed as M3 metabolite formation at 1 uM and measured upto 15 mins in presence of NADPH regenerating system by LC-MS/MS analysis; format: ADME, cell-based, Canis lupus familiaris; conditions: hepatocytes, 0.25 h
[18] = Metabolic stability in dog hepatocyte assessed as M4 metabolite formation at 1 uM and measured upto 15 mins in presence of NADPH regenerating system by LC-MS/MS analysis; format: ADME, cell-based, Canis lupus familiaris; conditions: hepatocytes, 0.25 h
[19] = Protein binding in mouse plasma assessed as fraction unbound at 20 ug/ml using 14C-labeled ligand by rapid equilibrium dialysis; format: ADME, cell-free; conditions: at 20 µg/mL
[20] = Tmax in Wistar rat at 3 mg/kg,iv or 3 mg/kg, po; format: ADME, organism-based; conditions: in vivo
[21] = Clearance in Wistar rat at 3 mg/kg,iv or 3 mg/kg, po; format: ADME, organism-based; conditions: in vivo
[22] = Tmax in Beagle dog at 2.5 mg/kg,iv or 2.5 mg/kg, po; format: ADME, organism-based, Canis lupus familiaris; conditions: in vivo
[23] = Volume of distribution at steady state in Cynomolgus monkey at 1.0 mg/kg,iv or 1.25 mg/kg, po; format: ADME, organism-based, Macaca fascicularis; conditions: in vivo, read-out: Vdss
[24] = Cardiotoxicity in human iPSC-derived cardiomyocytes assessed as slowing of spontaneous beating rate at 4.1 ug/ml; format: toxicity, cell-based; conditions: cardiac muscle cell, dose 4.1 µg/ml
[25] = In vivo inhibition of hERG in iv dosed dog assessed as change in PR interval; format: toxicity, organism-based, Canis lupus familiaris
[26] = Genotoxicity in Salmonella typhimurium TA98 at 5000 ug in presence of S9 fraction; format: toxicity, subcellular, Salmonella enterica subsp. enterica serovar Typhimurium; conditions: dose 5000 µg

Sequence of C-X-C chemokine receptor type 3 (Q9JII9 whole entry): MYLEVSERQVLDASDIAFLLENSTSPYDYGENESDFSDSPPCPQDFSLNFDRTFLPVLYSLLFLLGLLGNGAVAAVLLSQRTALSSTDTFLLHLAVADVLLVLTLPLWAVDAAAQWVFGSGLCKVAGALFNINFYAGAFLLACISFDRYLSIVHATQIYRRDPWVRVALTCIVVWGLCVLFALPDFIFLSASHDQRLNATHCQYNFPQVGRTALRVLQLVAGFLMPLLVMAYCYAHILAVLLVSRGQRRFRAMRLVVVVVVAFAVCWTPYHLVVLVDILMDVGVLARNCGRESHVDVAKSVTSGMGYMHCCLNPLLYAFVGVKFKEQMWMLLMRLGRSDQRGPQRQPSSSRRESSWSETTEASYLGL
Sequence of ATP-dependent translocase ABCB1 (P08183 whole entry): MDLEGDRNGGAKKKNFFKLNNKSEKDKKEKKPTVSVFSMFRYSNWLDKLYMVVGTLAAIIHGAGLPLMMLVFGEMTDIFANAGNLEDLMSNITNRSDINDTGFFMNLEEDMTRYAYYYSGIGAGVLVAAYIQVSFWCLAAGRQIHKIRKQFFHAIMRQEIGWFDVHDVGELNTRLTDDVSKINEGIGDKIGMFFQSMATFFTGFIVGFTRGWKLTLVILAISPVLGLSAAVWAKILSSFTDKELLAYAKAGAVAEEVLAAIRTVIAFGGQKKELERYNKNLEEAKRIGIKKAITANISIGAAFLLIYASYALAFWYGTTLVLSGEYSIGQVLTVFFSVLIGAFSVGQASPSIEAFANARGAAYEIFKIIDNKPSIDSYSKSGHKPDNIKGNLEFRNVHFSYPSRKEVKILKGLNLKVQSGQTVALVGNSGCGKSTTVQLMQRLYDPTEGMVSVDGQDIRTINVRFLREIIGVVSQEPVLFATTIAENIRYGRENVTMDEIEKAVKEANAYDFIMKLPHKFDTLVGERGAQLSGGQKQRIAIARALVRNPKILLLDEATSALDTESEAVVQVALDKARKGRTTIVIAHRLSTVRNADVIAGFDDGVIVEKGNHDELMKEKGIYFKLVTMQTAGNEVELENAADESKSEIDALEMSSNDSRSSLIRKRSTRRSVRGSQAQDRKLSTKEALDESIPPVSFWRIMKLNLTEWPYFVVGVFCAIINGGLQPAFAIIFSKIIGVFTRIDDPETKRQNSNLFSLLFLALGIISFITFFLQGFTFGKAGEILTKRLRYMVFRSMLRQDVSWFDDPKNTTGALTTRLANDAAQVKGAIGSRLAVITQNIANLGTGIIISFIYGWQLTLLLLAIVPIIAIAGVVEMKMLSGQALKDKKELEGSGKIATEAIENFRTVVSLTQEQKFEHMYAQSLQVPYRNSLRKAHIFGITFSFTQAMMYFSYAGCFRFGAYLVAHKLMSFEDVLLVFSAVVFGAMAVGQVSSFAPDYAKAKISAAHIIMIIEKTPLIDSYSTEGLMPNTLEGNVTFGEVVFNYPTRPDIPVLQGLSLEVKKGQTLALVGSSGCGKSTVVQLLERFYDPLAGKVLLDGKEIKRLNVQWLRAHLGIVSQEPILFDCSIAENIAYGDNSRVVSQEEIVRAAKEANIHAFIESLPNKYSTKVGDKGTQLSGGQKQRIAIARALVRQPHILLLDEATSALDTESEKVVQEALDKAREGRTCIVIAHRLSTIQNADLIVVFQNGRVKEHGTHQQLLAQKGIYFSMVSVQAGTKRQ
Sequence of Solute carrier organic anion transporter family member 1B1 (Q9Y6L6 whole entry): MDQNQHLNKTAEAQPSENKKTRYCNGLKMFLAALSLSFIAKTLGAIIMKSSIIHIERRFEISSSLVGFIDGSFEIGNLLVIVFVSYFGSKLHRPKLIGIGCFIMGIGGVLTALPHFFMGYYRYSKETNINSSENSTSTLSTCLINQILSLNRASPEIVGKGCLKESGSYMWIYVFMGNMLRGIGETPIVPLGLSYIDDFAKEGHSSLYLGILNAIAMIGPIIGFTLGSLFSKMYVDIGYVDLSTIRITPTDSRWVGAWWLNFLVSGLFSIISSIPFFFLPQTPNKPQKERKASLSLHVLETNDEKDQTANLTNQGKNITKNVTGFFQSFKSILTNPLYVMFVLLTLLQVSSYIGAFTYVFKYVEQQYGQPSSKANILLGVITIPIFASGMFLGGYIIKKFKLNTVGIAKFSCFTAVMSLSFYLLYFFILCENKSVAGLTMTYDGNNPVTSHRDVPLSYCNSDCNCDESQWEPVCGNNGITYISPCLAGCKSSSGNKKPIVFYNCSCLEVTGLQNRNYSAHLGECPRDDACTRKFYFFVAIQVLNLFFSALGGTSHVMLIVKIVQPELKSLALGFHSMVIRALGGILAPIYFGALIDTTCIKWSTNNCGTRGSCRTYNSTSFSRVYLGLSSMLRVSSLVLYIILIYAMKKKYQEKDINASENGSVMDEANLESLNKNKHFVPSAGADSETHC
Sequence of Cytochrome P450 2C9 (P11712 whole entry): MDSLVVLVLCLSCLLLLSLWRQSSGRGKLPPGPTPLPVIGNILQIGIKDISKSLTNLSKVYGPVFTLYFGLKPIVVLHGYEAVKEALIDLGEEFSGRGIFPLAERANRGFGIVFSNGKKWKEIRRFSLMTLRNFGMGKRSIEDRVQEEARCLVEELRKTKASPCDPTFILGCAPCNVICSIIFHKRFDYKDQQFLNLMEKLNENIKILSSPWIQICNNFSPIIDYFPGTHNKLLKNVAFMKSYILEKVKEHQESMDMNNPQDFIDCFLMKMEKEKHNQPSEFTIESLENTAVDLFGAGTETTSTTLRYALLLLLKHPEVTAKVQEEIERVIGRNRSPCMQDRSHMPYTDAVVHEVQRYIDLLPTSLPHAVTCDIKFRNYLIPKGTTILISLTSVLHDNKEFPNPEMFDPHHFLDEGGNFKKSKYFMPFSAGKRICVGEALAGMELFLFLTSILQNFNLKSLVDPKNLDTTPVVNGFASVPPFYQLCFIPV
Sequence of C3a anaphylatoxin chemotactic receptor (Homo sapiens) (Q16581 whole entry): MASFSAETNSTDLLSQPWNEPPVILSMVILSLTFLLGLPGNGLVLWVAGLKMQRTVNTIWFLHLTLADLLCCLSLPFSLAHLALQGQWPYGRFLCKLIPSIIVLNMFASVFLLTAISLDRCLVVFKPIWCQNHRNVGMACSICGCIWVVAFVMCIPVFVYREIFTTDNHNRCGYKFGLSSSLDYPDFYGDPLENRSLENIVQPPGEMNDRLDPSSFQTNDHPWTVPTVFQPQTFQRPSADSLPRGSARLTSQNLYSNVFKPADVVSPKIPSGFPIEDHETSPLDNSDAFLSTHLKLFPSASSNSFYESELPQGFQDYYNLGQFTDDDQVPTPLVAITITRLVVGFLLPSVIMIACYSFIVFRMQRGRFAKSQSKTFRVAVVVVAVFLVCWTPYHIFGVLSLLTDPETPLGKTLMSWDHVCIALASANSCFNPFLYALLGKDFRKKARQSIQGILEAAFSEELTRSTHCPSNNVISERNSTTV

- CL free [1]: 15 mL/min/kg
- IC50 [2]: 2.2 nM
- Activity [6]: 35%
- Activity [7]: 45%
- solubility [8]: 718 µg/mL (≈ 1300 µM)
- IC50 [9]: > 50000 nM
- Activity [10]: Not Active
- inhibition (INH) [11]: Not Active
- inhibition (INH) [12]: Not Active
- Activity [13]: Not Active
- Stability [14]: Unstable
- Stability [15]: Unstable
- Stability [16]: Unstable
- Stability [17]: Unstable
- Stability [18]: Unstable
- fraction unbound at 20 ug/ml [19]: 0.1
- Tmax [20]: 30 min
- clearance [21]: 9.5 mL/min/kg
- Tmax [22]: 24 min
- Vd [23]: 1.3 L/kg
SMILES: Cc1ncn(CC(=O)N2CCN(c3sc(C(F)(F)F)nc3-c3cnc(C(F)(F)F)nc3)C[C@H]2CCO)n1
- Activity [3]: inactive
- Activity [4]: Dose-Dependent Effect
- Activity [5]: 70%
- Activity [24]: Toxic
- inhibition (INH) [25]: Non-Toxic
- Activity [26]: Non-Toxic
